Drawing on ChEMBL document CHEMBL5143650, “Synthesis and biological evaluation of new series of quinazoline derivatives as EGFR/HER2 dual-target inhibitors” (Bioorg Med Chem Lett, 2022), this text covers inhibition, GI50 and IC50 for 21 compounds.

The structures appear in SMILES notation.

Assay [1] in a line: Inhibition of recombinant human N-terminal His-tagged EGFR (676 to 1255 residues) expressed in Sf21 insect cells at 200 uM using kinase substrate 22 incubated for 30 mins in presence of ATP relative to control.
A further assay has as its system PC-9. In words: Antiproliferative activity against human PC-9 cells expressing EGFR E746/A750 deletion mutant assessed as reduction in cell viability after 72 hrs by CCK-8 assay. In kind it is functional. On the technique in general: Formazan colour is commonly taken as a measure of viable cells.
A short description of assay [2]: Antiproliferative activity against human NCI-H1781 cells expressing HER G776V mutant assessed as reduction in cell viability after 72 hrs by CCK-8 assay. It is filed as functional.
Assay [3] concerns the target Epidermal growth factor receptor (Homo sapiens, UniProt P00533). Description: Inhibition of recombinant human N-terminal GST-tagged EGFR (669 to 1210 residues) expressed in Sf21 insect cells using kinase substrate 22 incubated for 30 mins in presence of ATP.
The nature of assay [4]: Inhibition of recombinant human N-terminal His-tagged EGFR (676 to 1255 residues) expressed in Sf21 insect cells using kinase substrate 22 incubated for 30 mins in presence of ATP.
Another assay concerns NCI-H358. Description: Antiproliferative activity against human NCI-H358 cells assessed as reduction in cell viability after 72 hrs by CCK-8 assay. It is filed as functional.
A further assay has as its system Calu-3. Description: Antiproliferative activity against human Calu-3 cells assessed as reduction in cell viability after 72 hrs by CCK-8 assay. It is filed as functional.

Sequence of Epidermal growth factor receptor (P00533 whole entry, the tested form may be a part): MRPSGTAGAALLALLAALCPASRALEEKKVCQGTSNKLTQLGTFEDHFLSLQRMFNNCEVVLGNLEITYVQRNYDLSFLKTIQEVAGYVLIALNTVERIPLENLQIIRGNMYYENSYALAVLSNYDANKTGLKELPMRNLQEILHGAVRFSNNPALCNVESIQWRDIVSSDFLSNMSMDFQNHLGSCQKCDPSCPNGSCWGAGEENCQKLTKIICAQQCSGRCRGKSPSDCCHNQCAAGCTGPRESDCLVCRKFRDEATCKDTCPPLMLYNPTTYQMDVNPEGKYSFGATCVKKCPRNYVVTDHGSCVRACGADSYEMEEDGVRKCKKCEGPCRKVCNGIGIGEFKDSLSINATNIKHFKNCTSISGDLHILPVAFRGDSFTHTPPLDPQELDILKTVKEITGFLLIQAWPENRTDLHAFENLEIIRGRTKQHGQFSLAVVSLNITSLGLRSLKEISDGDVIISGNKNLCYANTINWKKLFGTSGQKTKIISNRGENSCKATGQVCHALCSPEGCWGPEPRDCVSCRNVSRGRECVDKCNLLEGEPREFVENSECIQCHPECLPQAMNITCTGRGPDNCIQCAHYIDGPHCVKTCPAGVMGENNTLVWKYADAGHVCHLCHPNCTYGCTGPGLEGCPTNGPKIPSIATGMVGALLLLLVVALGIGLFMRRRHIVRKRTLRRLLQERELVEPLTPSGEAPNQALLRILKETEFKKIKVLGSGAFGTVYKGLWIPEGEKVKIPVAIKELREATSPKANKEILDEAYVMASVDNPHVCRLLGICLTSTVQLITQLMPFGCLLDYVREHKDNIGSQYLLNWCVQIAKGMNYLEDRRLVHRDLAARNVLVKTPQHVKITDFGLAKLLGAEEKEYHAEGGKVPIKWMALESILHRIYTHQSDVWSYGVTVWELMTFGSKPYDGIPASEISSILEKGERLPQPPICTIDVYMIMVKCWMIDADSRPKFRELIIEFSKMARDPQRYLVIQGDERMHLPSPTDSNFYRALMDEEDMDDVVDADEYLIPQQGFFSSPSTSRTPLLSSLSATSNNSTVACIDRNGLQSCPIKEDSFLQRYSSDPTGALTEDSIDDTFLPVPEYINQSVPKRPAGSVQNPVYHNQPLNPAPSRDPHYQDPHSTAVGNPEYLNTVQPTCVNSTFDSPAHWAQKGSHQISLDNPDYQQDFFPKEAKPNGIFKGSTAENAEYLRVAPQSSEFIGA

Consider `C=CC(=O)N1CCN(C(=O)Oc2cc3c(Nc4ccc(C#N)c(Cl)c4)ncnc3cc2OC)[C@H](C)C1`, for which, in assay [1], the inhibition (in general, the change of the read-out against control, counted positive when it falls) stood at 11.9%.
Same read-out and setting: in the case of `C=CC(=O)N1CCN(C(=O)Oc2cc3c(Nc4ccc(C#N)c(F)c4)ncnc3cc2OC)[C@H](C)C1` it was 2.3%.
For `C=CC(=O)N1CCN(C(=O)Oc2cc3c(Nc4cccc(Cl)c4F)ncnc3cc2OC)[C@H](C)C1`, the GI50 (usually the concentration giving 50% growth inhibition) in the assay on PC-9 was 0.00603 µM; in assay [2], above 2 µM; in the assay with NCI-H358 it was 0.464 µM; with Calu-3, 0.264 µM. Moreover, the results for the IC50 in assay [3] and in assay [4] were 0.00034 µM and 0.152 µM, respectively. Also, the inhibition in assay [1] came out at 53.4%.
Turning to `C=CC(=O)N1CCC(Oc2cc3c(Nc4ccc(Cl)c(Cl)c4F)ncnc3cc2OC)CC1` [POZIOTINIB], the GI50 in the assay on PC-9 amounted to 0.0009 µM; in assay [2], 0.00227 µM; in the assay with NCI-H358 it was 0.00867 µM; in the assay on Calu-3, 0.0101 µM. Moreover, the IC50 – broadly, the concentration at which inhibition is half-maximal – in assay [4] is 0.00388 µM. Further, the inhibition in assay [1] worked out at 97.1%.
With `C#CC(=O)N1CCN(C(=O)Oc2cc3c(Nc4ccc(Cl)c(Cl)c4F)ncnc3cc2OC)[C@H](C)C1`, the GI50 was 0.299 µM in the assay on PC-9, above 2 µM in assay [2], 0.671 µM in the assay on NCI-H358 and 0.718 µM in the assay with Calu-3. The results for the IC50 in assay [3] and in assay [4] were 0.00032 µM and 0.0222 µM, respectively. In addition, the inhibition in assay [1] worked out at 94%.
Take `C=C(C(=O)N1CCN(C(=O)Oc2cc3c(Nc4ccc(Cl)c(Cl)c4F)ncnc3cc2OC)[C@H](C)C1)C(F)(F)F`: the 50% growth inhibitory concentration (GI50) in the assay on PC-9 was 0.0908 µM; in assay [2], above 2 µM; in the assay with NCI-H358 it was 1.02 µM; in the assay with Calu-3, 0.553 µM. For the same compound, the IC50 in assay [3] came out at 0.00038 µM; in assay [4], 0.0282 µM. In addition, the inhibition in assay [1] came out at 82.7%.
With `C=CC(=O)Oc1cc2c(Nc3ccc(Cl)c(Cl)c3F)ncnc2cc1OC`, the GI50 in the assay with PC-9 was 0.0923 µM; in assay [2], above 2 µM; with NCI-H358, 0.619 µM; in the assay on Calu-3 it was 1.34 µM. Further, the IC50 in assay [3] was 0.00054 µM; in assay [4] it was 0.0544 µM. The inhibition in assay [1] came out at 71.5%.
As to `CN(C)C/C=C/C(=O)Nc1cc2c(Nc3ccc(F)c(Cl)c3)ncnc2cc1O[C@H]1CCOC1` [AFATINIB], the GI50 with PC-9 worked out at 0.00037 µM; in assay [2] it was 0.00023 µM; in the assay with NCI-H358, 0.001 µM; with Calu-3, 0.00277 µM. Also, in assay [4], the IC50 was 0.00169 µM. Further, the inhibition in assay [1] turned out to be 102%.
With `C=C(F)C(=O)N1CCN(C(=O)Oc2cc3c(Nc4ccc(Cl)c(Cl)c4F)ncnc3cc2OC)[C@H](C)C1`, the inhibition in assay [1] stood at 41.1%.
On the same count and under the same terms, for `C=C(C)C(=O)N1CCN(C(=O)Oc2cc3c(Nc4ccc(Cl)c(Cl)c4F)ncnc3cc2OC)[C@H](C)C1` the value was 43.6%; for `C=C(F)C(=O)N1CCN(C(=O)Oc2cc3c(Nc4cnc5ccccc5c4)ncnc3cc2OC)[C@H](C)C1`, 11.5%.
As to `C=CC(=O)N1C[C@@H]2C[C@H]1CN2C(=O)Oc1cc2c(Nc3ccc(Cl)c(Cl)c3F)ncnc2cc1OC`, the GI50 in the assay on PC-9 came out at 0.00195 µM; in assay [2], 0.0416 µM; in the assay with NCI-H358, 0.0233 µM; in the assay with Calu-3, 0.0231 µM. For the same compound, the IC50 in assay [3] stood at 0.0003 µM; in assay [4], 0.00607 µM. In addition, in assay [1], the inhibition came to 95.8%.
`C=CC(=O)N1CCN(C(=O)Oc2cc3c(Nc4ccc(Cl)c(Cl)c4F)ncnc3cc2OC)[C@H](C)C1`: the inhibition in assay [1] turned out to be 48.9%.
Same read-out and setting: in the case of `C=CC(=O)N1CCN(C(=O)Oc2cc3c(Nc4ccc(F)c(C#N)c4)ncnc3cc2OC)[C@H](C)C1` it was 13.9%; in that of `C=C(F)C(=O)N1C[C@@H]2C[C@H]1CN2C(=O)Oc1cc2c(Nc3ccc(Cl)c(Cl)c3F)ncnc2cc1OC`, 47.9%; in that of `C=CC(=O)N1CCN(C(=O)Oc2cc3c(Nc4cnc5ccccc5c4)ncnc3cc2OC)[C@H](C)C1`, 14.9%.
For `C=CC(=O)N1CCN(C(=O)Oc2cc3c(Nc4ccc5scnc5c4)ncnc3cc2OC)[C@H](C)C1`, the inhibition in assay [1] turned out to be 5.8%.
The same measure, in the same setting: in the case of `C=CC(=O)N1CCN(C(=O)Oc2cc3c(Nc4ccc5ncccc5c4)ncnc3cc2OC)[C@H](C)C1` it was 2.6%; in that of `C=CC(=O)N1CCN(C(=O)Oc2cc3c(Nc4cc(C(C)(C)C)no4)ncnc3cc2OC)[C@H](C)C1`, 14.6%; in that of `C=CC(=O)N1CCN(C(=O)Oc2cc3c(Nc4ccc(C#N)cc4)ncnc3cc2OC)[C@H](C)C1`, 4.4%.
The same measure, in the same setting: in the case of `C=CC(=O)N1CCN(C(=O)Oc2cc3c(Nc4ccc5ccccc5c4)ncnc3cc2OC)[C@H](C)C1` it was 30.8%.
